# In article PMC4747407 (Oncotarget, 2015):
# “Also recorded” adds a separate entry of the source.
# Assays:
# [1] = small phase 1 study; cited from earlier work
# [2] = tested on: Wnt1 (int-1) mammary tumors; experiment: Wnt1 subcutaneous mammary tumor model
# Experimental: All studies were performed according to IACUC approved protocols. The general health of mice was monitored daily. Tumor volume was determined by caliper measurements (mm), using the formula (l x w^2)/2 = mm^3, where l and w refer to the larger and smaller perpendicular dimensions collected at each measurement. Tumor dimensions were recorded twice per week starting when tumors reached an approximate size of 100 to 150 mm^3. Body weights were recorded twice per week and relative body weight was calculated as follows: Relative body weight = (body weight on day of measurement/body weight on first day of treatment).
# Tumor pieces cut to approximately 2 mm^3 in size were injected subcutaneously in female nude mice. Treatment was initiated approximately 9–10 days post-implantation of mice.
# TNKS1/2 = TNKS1/2 inhibition, summary over the enzyme assays; assay type: biochemical, human; details: range over the assays used
# Experimental: Samples were analyzed via phosphorimaging.
# [3] = tested on: Wnt-mediated hair re-growth; experiment: Re-growth of hair after depilation in C57BL/6 mice; assay type: in vivo, mouse; details: 30, 100 or 300 mg/kg oral once daily for 12 days
# Source text: Re-growth of hair was monitored and recorded by photography.
# PARP1 = target: T1, PARP1 (Gallus gallus, UniProt P26446); experiment: PARP trapping: western blot of chromatin-bound fraction of MMS-damaged DT40 cells; assay type: cell-based, avian; details: 0.05% MMS, inhibitor 0.1–10 μmol/L, 30 min
# T1 construct: endogenous in cells; host or cells: DT40 cells
# T1 sequence (P26446 whole entry): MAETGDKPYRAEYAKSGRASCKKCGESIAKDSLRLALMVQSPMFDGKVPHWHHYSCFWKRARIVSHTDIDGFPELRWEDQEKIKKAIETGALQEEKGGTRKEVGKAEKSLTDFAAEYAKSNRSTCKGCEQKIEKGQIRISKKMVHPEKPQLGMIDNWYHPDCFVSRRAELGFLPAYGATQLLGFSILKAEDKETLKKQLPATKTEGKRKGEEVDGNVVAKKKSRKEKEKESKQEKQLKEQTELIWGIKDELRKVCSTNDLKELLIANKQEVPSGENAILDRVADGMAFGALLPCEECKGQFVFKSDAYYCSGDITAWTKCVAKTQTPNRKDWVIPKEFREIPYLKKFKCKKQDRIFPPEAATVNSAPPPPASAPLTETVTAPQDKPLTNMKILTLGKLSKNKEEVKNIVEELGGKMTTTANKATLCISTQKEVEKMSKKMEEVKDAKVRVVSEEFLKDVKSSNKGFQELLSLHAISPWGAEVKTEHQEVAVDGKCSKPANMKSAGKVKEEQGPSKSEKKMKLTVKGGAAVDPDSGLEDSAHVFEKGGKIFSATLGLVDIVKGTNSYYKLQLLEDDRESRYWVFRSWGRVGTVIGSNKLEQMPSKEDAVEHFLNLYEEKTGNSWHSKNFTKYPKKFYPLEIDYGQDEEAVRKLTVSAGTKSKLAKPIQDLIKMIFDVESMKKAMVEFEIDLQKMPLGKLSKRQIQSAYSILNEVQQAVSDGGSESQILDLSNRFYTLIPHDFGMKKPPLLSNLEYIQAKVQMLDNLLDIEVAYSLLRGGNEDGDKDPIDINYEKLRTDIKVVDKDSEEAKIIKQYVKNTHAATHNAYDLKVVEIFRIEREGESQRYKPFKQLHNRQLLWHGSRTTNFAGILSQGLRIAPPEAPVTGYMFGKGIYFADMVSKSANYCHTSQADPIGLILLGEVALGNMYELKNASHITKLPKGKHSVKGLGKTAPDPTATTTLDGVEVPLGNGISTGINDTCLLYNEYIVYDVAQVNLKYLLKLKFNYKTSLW
# Experimental: Following binding of appropriate secondary antibodies labeled with IRDye® (LI-COR), image analysis and quantitation of blots was performed with Image Studio software for the LI-COR Odyssey system (version 2.1.10).
# DLD-1 cells = experiment: Gene expression profiling of Wnt-related genes (TLDA qPCR) in DLD-1 cells; assay type: cell-based, human; details: 30 μmol/L, 72 h
# Experimental: (§1) Gene expression profiling was performed using a custom designed TaqMan® low density array (TLDA). Total RNA was isolated from cell lines using RNeasy Mini Kit (Qiagen) and from xenograft tumor FFPE tissue using RecoverAll Total Nucleic Acid Isolation (Ambion). Human and mouse, real-time qPCR TLDAs (384-well micro fluidic card) were designed with genes selected based on their involvement in Wnt signalling (see supplementary Tables 2 and 3 for lists of genes on TLDAs). cDNA was generated from total RNA using High Capacity cDNA Reverse Transcription kit (Life Technologies) or SuperScript® VILO™ Master Mix (Life Technologies). 100 ng cDNA was combined with TaqMan® Gene Expression Master Mix (Life Technologies) for the cell lines and TaqMan® Advanced FAST Master Mix (Life Technologies) for the xenograft tissue for each port (in duplicate). TLDAs were run based on recommended cycling times for each master mix. Ct values were calculated and imported into GeneData Analyst for further analysis. To calculate the ΔCts, gene expression was normalized to several housekeeping genes. Relative fold change was calculated by comparison to the DMSO or vehicle-treated controls for each sample. A student's t-test was used to calculate P-values and hierarchical clustering used Manhattan distance and complete linkage plotting of selected significant genes to generate heat maps.
# SW480 cells [4] = experiment: Western blot of Wnt/β-catenin pathway proteins in SW480 cells; assay type: cell-based, human; details: 10 μmol/L, 24 h
# Experimental: SW480, DLD-1 (Wnt-dependent) or RKO (Wnt-independent) cells were plated in 6-well plates and incubated overnight. Cells were treated with E7449, olaparib or XAV939 and incubated for various time periods prior to processing by SDS PAGE and western blot analysis. […] Following binding of appropriate secondary antibodies labeled with IRDye® (LI-COR), image analysis was performed with Image Studio software for the LI-COR Odyssey system (version 2.1.10).
# [5] = design: method as in PMID 22246237; details: cited from earlier work
# Wnt1 model tumors = experiment: Gene expression of Wnt-related genes in Wnt1 model tumors (mouse TLDA); assay type: in vivo; details: 7 days of drug treatment
# Experimental: as §1
# P-glycoprotein = tested on: P-glycoprotein; design: method as in PMID 22246237; details: cited from earlier work
# [6] = tested on: MDA-MB-436 human breast cancer xenografts; experiment: MDA-MB-436 subcutaneous xenograft model, single agent; assay type: in vivo, mouse
# Experimental: (§2) All studies were performed according to IACUC approved protocols. The general health of mice was monitored daily.
# [7] = tested on: DNA repair mutant DT40 cell lines; experiment: Proliferation assay in panel of isogenic DNA repair mutant DT40 cell lines (XTT); assay type: cell-based, avian
# [8] = tested on: B16-F10 mouse melanoma isografts; experiment: B16-F10 mouse melanoma isograft model, combination with TMZ; assay type: in vivo
# Experimental: as §2
# TMZ combination in B16-F10 isograft model: female C57BL/6 mice were inoculated subcutaneously with B16-F10 cells (2 × 10^5). Following randomization by body weight, drug treatment was initiated 1 day post-inoculation. […] TMZ was administered daily on days 1 to 5 at 50 mg/kg as a single agent or in combination. […] The control group was treated with vehicle (0.5% methyl cellulose in water). E7449 or vehicle was administered first and when dosing of all animals was complete TMZ was administered to animals receiving the combination.
# SW480 cells [9] = experiment: Gene expression profiling of Wnt-related genes (TLDA qPCR) in SW480 cells; assay type: cell-based, human; details: 30 μmol/L, 72 h
# Experimental: as §1
# wild type DT40 cells = experiment: cells; details: DT40, 48 h, read-out: IC50, cell proliferation, wild type DT40 cells
# Experimental: Proliferation assays were performed in a panel of 32 isogenic DT40 cell lines, in which each line was deficient in a distinct DNA repair gene [31]. Cells were seeded and incubated with test compound at various concentrations for 2–3 days (~ 8 cell cycles). […] Each experiment was conducted in duplicate and a minimum of 3 separate experiments were performed. […] For proliferation assays cells were plated at low density in 96 well plates. […] Cell growth was assessed using the CellTiter-Glo® cell viability assay (Promega, Cat# G7573). Each experiment was conducted in duplicate and a minimum of 3 separate experiments were performed.
# [10] = E7449 10, 30, 100 mg/kg + TMZ 50 mg/kg
smiles,measurement,setting,value
"O=c1[nH]nc2c3c(cccc13)N=C(CN1Cc3ccccc3C1)N2 [E7449, 8-(isoindolin-2-ylmethyl)-2,9-dihydro-3H-pyridazino[3,4,5-de]quinazolin-3-one]",dose-limiting toxicity,[1],fatigue
same,tolerability in cancer patients,[1],generally well tolerated
same,effect of adding E7449 to E6201 on body weight loss,[2]; E7449 100 mg/kg + E6201 40 mg/kg,did not impact body weight loss
same,"tumor growth, single agent","[2]; E7449 100 mg/kg once daily, Wnt-C59 10 mg/kg once daily, E6201 40 mg/kg i.v. Q4Dx3",did not inhibit tumor growth; also recorded: No antitumor effect
same,"antitumor activity, combination of E7449 and E6201",[2]; E7449 100 mg/kg oral once daily + E6201 40 mg/kg i.v. Q4Dx3,Antitumor activity was enhanced; also recorded: synergistic inhibition of tumor growth
same,"tolerability (body weight loss), single agent","[2]; E7449 100 mg/kg, Wnt-C59 10 mg/kg once daily",well tolerated with minimal toxicity
same,IC50,TNKS1/2,0.05 to 0.12 µM
same,hair re-growth,[3],significantly delayed
same,PARP1 trapping onto chromatin,PARP1,binding of PARP1 to chromatin in a dose responsive manner
same,number of Wnt-related genes with significantly altered expression,DLD-1 cells,40 genes
same,Cyclin D1 protein levels,SW480 cells [4],modest decrease
same,axin2 protein level,SW480 cells [4],significant increase
same,reduction of active (non-phosphorylated) β-catenin level,SW480 cells [4],~ 70%
same,reduction of total β-catenin level,SW480 cells [4],~50%
same,brain penetration,[5],brain penetrable
same,oral bioavailability,[5],orally bioavailable
same,"expression of Wnt-related genes CAR2, FZD9, LEF1, VIL1 in tumors",Wnt1 model tumors,"also altered in tumors from E7449-treated mice, albeit to a lesser extent"
same,P-glycoprotein substrate,P-glycoprotein,not a substrate for P-glycoprotein
same,tolerability,[6]; 30 or 100 mg/kg once daily for 28 days,well-tolerated without any significant body weight loss or deaths
same,"antitumor activity, single agent",[6]; 30 or 100 mg/kg oral once daily for 28 days,statistically significant antitumor activity
same,sensitivity of cell lines deficient in NHEJ repair,"[7]; KU70, PKCS, LIGIV deficient DT40",Resistance
same,effect of loss of POLQ on sensitivity,[7]; POLQ deficient DT40,no effect
same,sensitivity of DT40 cells lacking PARP expression,[7]; versus wild type DT40,significantly resistant
same,"growth of subcutaneous tumors, single agent","[8]; E7449 100 mg/kg or TMZ 50 mg/kg, oral once daily",moderately inhibited
same,"animal lethality, combination with TMZ",[8]; [10],No animal lethality occurred
same,"body weight, combination with TMZ",[8]; [10],body weight loss was observed in all 3 combination groups
same,"tumor growth inhibition, combination with TMZ","[8]; E7449 10, 30 and 100 mg/kg + TMZ 50 mg/kg, oral",significantly enhanced tumor growth inhibition
same,number of Wnt-related genes with significantly altered expression,SW480 cells [9],30 genes
same,IC50,wild type DT40 cells,3.2 µM
